These are literature values, as cited in patent publication US9078816B2, “Buccal, polar and non-polar spray containing ondansetron” (Suda Ltd., priority 1997, dated 2015).

For series [1] the following is noted: include headaches, constipation, and dizziness.

As for `Cc1nccn1CC1CCc2c(c3ccccc3n2C)C1=O` (stereo not drawn) [Ondansetron], the metabolism entry (liver) is “extensively metabolized by the liver”. In addition, the oral bioavailability result (oral administration) was “about 60%”. Further, the adverse effects result in series [1] is listed as “mild”.
